For this assay, the target named is T1, hFFA3 (Homo sapiens, UniProt O14843).
T1 sequence (O14843 1-346): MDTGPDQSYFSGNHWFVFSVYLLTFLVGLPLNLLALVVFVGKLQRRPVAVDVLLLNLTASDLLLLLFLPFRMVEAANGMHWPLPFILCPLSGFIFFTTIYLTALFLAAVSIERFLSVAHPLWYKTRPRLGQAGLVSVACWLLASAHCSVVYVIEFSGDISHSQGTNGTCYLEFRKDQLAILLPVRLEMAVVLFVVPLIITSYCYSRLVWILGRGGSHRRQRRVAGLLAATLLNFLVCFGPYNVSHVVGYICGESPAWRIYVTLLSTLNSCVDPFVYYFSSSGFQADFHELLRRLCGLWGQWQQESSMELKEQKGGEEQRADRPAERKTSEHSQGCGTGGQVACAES
In words: cell-based. The settings on record: for PAM pEC50: cAMP assay in the presence of 1 μM propionate; for cAMP pEC50: compound alone, mean of ≥3 independent experiments ± standard error; for Emax: HEK293, read-out: cAMP Emax; for allosteric effect on propionate response: cAMP assay together with propionate (56: 30 μM compound; 62, 63: 1 μM propionate). As to the method:
The ligands were initially screened in a human FFA3-dependent [^35S]GTPγS binding assay as this assay reflects receptor-mediated activation of Gi/o proteins and is known to generally correlate well with ligand affinity.[30] Analogues of particular interest were tested further in a cAMP inhibition assay as this is an important downstream effect of Gi-activation. […] It is furthermore performed in whole cells, is more downstream, includes G protein signal amplification, and therefore better reflects a more natural ligand–receptor response.
HEK293 Flp-In T-Rex cells stably transfected with FFA3-eYFP receptors were incubated overnight with doxycycline to induce expression, then harvested, and cryopreserved. On the day of each experiment, cells were thawed and resuspended in stimulation buffer. Assays were carried out using a 384-well plate format with 3000 cells/well using the CisBio cAMP GS dynamic kit as per manufacturer’s protocol. Compounds were tested for the ability to inhibit 0.3 μM forskolin-induced cAMP production after co-incubation for 1 h. Reactions were measured using a PHERAstar FS plate reader (BMGLabtech, Aylesbury, UK).
(In general: Changes in cAMP serve as a functional read-out for many G protein-coupled receptors.)

The mark [1] stands for this setting: read-out: EC50 (cAMP assay), hFFA3.

Where a name gives a salt, the structure may show the parent alone. Read-outs that look alike come from different tables or passages of the source.

With `CC1=C(C#N)C(CC(C)C)C(C(=O)Nc2ccccc2C)=C(C)N1` (stereo not drawn) [Compound 27, 5-Cyano-4-isobutyl-2,6-dimethyl-N-(o-tolyl)-1,4-dihydropyridine-3-carboxamide], the “PAM pEC50” value is 6.42 ± 0.09. Also, the “cAMP pEC50” value (hFFA3) is reported as 3.99 ± 0.01.
Broadly, the EC50 is the concentration giving half of the maximal effect. Regarding `CC1=C(C(=O)Nc2ccccc2C)C(CC(C)C)C(C(=O)c2ccccc2)=C(C)N1` (stereo not drawn) [Compound 25, 5-Benzoyl-4-isobutyl-2,6-dimethyl-N-(o-tolyl)-1,4-dihydropyridine-3-carboxamide], the 50% effective concentration (EC50) is more than 100 µM and the “PAM pEC50” value is “nr^c”. The “cAMP pEC50” value (hFFA3) is “nr^c”.
One may read the Emax as the greatest response seen or fitted, relative to the assay's reference. For `CCC(C)C1C(C(=O)Nc2ccccc2C)=C(C)NC2=C1C(=O)CCC2` (stereo not drawn) [Compound 30, 4-(sec-Butyl)-2-methyl-5-oxo-N-(o-tolyl)-1,4,5,6,7,8-hexahydroquinoline-3-carboxamide], the Emax was 110% and the “PAM pEC50” value is on record as 6.30 ± 0.04. Besides, under “hFFA3”, the “cAMP pEC50” value came to 5.00 ± 0.07.
In the case of `CCN(CC)CCOCC1C(C(=O)Nc2cc(Cl)ccc2Cl)=C(C)NC2=C1C(=O)CCC2` (stereo not drawn) [Compound 54, N-(2,5-Dichlorophenyl)-4-((2-(diethylamino)ethoxy)methyl)-2-methyl-5-oxo-1,4,5,6,7,8-hexahydroquinoline-3-carboxamide], under “hFFA3”, the “cAMP pEC50” value is “nr^d”.
Regarding `CC1=C(C(=O)Nc2cc(Cl)ccc2Cl)C(CC2CCNCC2)C2=C(CCCC2=O)N1` (stereo not drawn) [Compound 53, N-(2,5-Dichlorophenyl)-2-methyl-5-oxo-4-(piperidin-4-ylmethyl)-1,4,5,6,7,8-hexahydroquinoline-3-carboxamide Hydrochloride], for the setting “hFFA3”, the “cAMP pEC50” value is reported as “nr^d”.
Consider `CC1=C(C(=O)Nc2ccccc2C)C(/C=C/c2ccccc2)C2=C(CCCC2=O)N1` (stereo not drawn) [Compound 39], for which the EC50 was more than 10 µM, the Emax was 113% and the “PAM pEC50” value stood at 6.14 ± 0.07. The “cAMP pEC50” value (hFFA3) is recorded as 4.34 ± 0.18.
Take `CCC1=C(C(=O)Nc2ccccc2C)C(c2ccco2)C2=C(CCCC2=O)N1` (stereo not drawn) [Compound 22, 2-Ethyl-4-(furan-2-yl)-5-oxo-N-(o-tolyl)-1,4,5,6,7,8-hexahydroquinoline-3-carboxamide]: the Emax was 95%. In addition, under “hFFA3”, the “cAMP pEC50” value is reported as 5.47 ± 0.04.
As for `CC1=C(C(=O)Nc2ccccc2C)C(c2ccc(C)o2)C2=C(CCCC2=O)N1` (stereo not drawn) [Compound 42, 2-Methyl-4-(5-methylfuran-2-yl)-5-oxo-N-(o-tolyl)-1,4,5,6,7,8-hexahydroquinoline-3-carboxamide], the Emax was 100%. Also, under “hFFA3”, the “cAMP pEC50” value is 5.96 ± 0.03.
As to `CCCCCC1C(C(=O)Nc2ccccc2C)=C(C)NC2=C1C(=O)CCC2` (stereo not drawn) [Compound 37, 2-Methyl-5-oxo-4-pentyl-N-(o-tolyl)-1,4,5,6,7,8-hexahydroquinoline-3-carboxamide], the “PAM pEC50” value was 6.40 ± 0.10. Also, the “cAMP pEC50” value (hFFA3) came to 5.60 ± 0.17.
As for `CC1=C(C(=O)Nc2ccccc2C)C(c2cccn2C)C2=C(CCCC2=O)N1` (stereo not drawn) [Compound 41, 2-Methyl-4-(1-methyl-1H-pyrrol-2-yl)-5-oxo-N-(o-tolyl)-1,4,5,6,7,8-hexahydroquinoline-3-carboxamide], the Emax was 97%. Moreover, the “cAMP pEC50” value (hFFA3) was 4.45 ± 0.09.
As for `CC1=C(C(=O)Nc2ccccc2C)C(c2cc(C)cs2)C2=C(CCCC2=O)N1` (stereo not drawn) [Compound 43, 2-Methyl-4-(4-methylthiophen-2-yl)-5-oxo-N-(o-tolyl)-1,4,5,6,7,8-hexahydroquinoline-3-carboxamide], the Emax was 102%. Further, the “cAMP pEC50” value (hFFA3) is reported as 5.86 ± 0.04.
For the compound `COC(=O)C1=C(C)NC(C)=C(C(=O)Nc2ccccc2C)C1CC(C)C` (stereo not drawn) [Compound 26, Methyl 4-isobutyl-2,6-dimethyl-5-(o-tolylcarbamoyl)-1,4-dihydropyridine-3-carboxylate], the EC50 is more than 100 µM, the “PAM pEC50” value amounted to 6.16 ± 0.12 and the “allosteric effect on propionate response” value is “PAM”. Also, the “cAMP pEC50” value (hFFA3) was “nr^c”.
Turning to `CC1=C(C(=O)Nc2ccccc2C)C(CCc2ccccc2)C2=C(CCCC2=O)N1` (stereo not drawn) [Compound 38, 2-Methyl-5-oxo-4-phenethyl-N-(o-tolyl)-1,4,5,6,7,8-hexahydroquinoline-3-carboxamide], the 50% effective concentration (EC50) is more than 10 µM, the Emax is 97% and the “PAM pEC50” value amounted to 6.23 ± 0.03. Moreover, the “cAMP pEC50” value (hFFA3) is given as 4.21 ± 0.27.
Take `Cc1ccccc1NC(=O)C1=C(c2ccccc2)NC2=C(C(=O)CCC2)C1c1ccco1` (stereo not drawn) [Compound 23, 4-(Furan-2-yl)-5-oxo-2-phenyl-N-(o-tolyl)-1,4,5,6,7,8-hexahydroquinoline-3-carboxamide]: the “cAMP pEC50” value (hFFA3) was “completely inactive and nr^c”.
In the case of `CC1=C(C(=O)Nc2ccccc2C)C(c2cc3ccccc3o2)C2=C(CCCC2=O)N1` (stereo not drawn) [Compound 45, 4-(Benzofuran-2-yl)-2-methyl-5-oxo-N-(o-tolyl)-1,4,5,6,7,8-hexahydroquinoline-3-carboxamide], the Emax is 98%. Also, the “cAMP pEC50” value (hFFA3) amounted to 6.00 ± 0.02.
`CC1=C(C(=O)c2ccccc2)C(CC(C)C)C2=C(CCCC2=O)N1` (stereo not drawn) [Compound 29, 3-Benzoyl-4-isobutyl-2-methyl-4,6,7,8-tetrahydroquinolin-5(1H)-one]: the “PAM pEC50” value is reported as more than 4 and the “allosteric effect on propionate response” value was “PAM properties”. For the same compound, the “cAMP pEC50” value (hFFA3) is “inactive alone and nr^c”.
For `CC1=C(C(=O)Nc2ccccc2C)[C@@H](c2ccco2)C2=C(CCCC2=O)N1` [(S)-1], the EC50 was 2 µM.
`CC1=C(C(=O)Nc2ccccc2C)C(c2csc3ccccc23)C2=C(CCCC2=O)N1` (stereo not drawn) [Compound 46, 4-(Benzo[b]thiophen-3-yl)-2-methyl-5-oxo-N-(o-tolyl)-1,4,5,6,7,8-hexahydroquinoline-3-carboxamide]: the Emax was 95%. The “cAMP pEC50” value (hFFA3) amounted to 5.11 ± 0.04.
Turning to `CCC1C(C(=O)Nc2ccccc2C)=C(C)NC2=C1C(=O)CCC2` (stereo not drawn) [Compound 34, 4-Ethyl-2-methyl-5-oxo-N-(o-tolyl)-1,4,5,6,7,8-hexahydroquinoline-3-carboxamide], the Emax was 106% and the “PAM pEC50” value is 6.45 ± 0.16. Further, the “cAMP pEC50” value (hFFA3) is listed as 5.38 ± 0.13.
On to `CC1=C(C(=O)Nc2ccccc2C)C(C2CCCCC2)C2=C(CCCC2=O)N1` (stereo not drawn) [Compound 31, 4-Cyclohexyl-2-methyl-5-oxo-N-(o-tolyl)-1,4,5,6,7,8-hexahydroquinoline-3-carboxamide], for which the Emax is 91%. Besides, for the setting “hFFA3”, the “cAMP pEC50” value came to 5.26 ± 0.10.
In the case of `CC1=C(C(=O)Nc2ccccc2C)C(C2CC2)C2=C(CCCC2=O)N1` (stereo not drawn) [Compound 33, 4-Cyclopropyl-2-methyl-5-oxo-N-(o-tolyl)-1,4,5,6,7,8-hexahydroquinoline-3-carboxamide], the Emax is 102%. In addition, the “cAMP pEC50” value (hFFA3) worked out at 6.22 ± 0.10. Further, the EC50 under setting [1] is 0.6 µM.
Turning to `CC1=C(C(=O)Nc2ccccc2C)C(C2CCCC2)C2=C(CCCC2=O)N1` (stereo not drawn) [Compound 32, 4-Cyclopentyl-2-methyl-5-oxo-N-(o-tolyl)-1,4,5,6,7,8-hexahydroquinoline-3-carboxamide], the Emax is 102%. In addition, under “cyclopentyl relative to cyclohexyl (31)”, the increase in potency stood at 20 fold. For the same compound, under “hFFA3”, the “cAMP pEC50” value is reported as 6.54 ± 0.02. For the same compound, the EC50 under setting [1] came out at 0.288 µM.
In the case of `CC1=C(C(=O)Nc2ccccc2C)C(c2ccc(Br)o2)C2=C(CCCC2=O)N1` (stereo not drawn) [Compound 44, 4-(5-Bromofuran-2-yl)-2-methyl-5-oxo-N-(o-tolyl)-1,4,5,6,7,8-hexahydroquinoline-3-carboxamide], the Emax was 95%. The “cAMP pEC50” value (hFFA3) came out at 6.61 ± 0.02.
With `COC(=O)C1=C(C)NC2=C(C(=O)CCC2)C1CC(C)C` (stereo not drawn) [Compound 28, Methyl 4-isobutyl-2-methyl-5-oxo-1,4,5,6,7,8-hexahydroquinoline-3-carboxylate], the “PAM pEC50” value came to 6.21 ± 0.10 and the “allosteric effect on propionate response” value is “PAM properties”. Also, the “cAMP pEC50” value (hFFA3) was “inactive alone and nr^c”.
Turning to `CC1=C(C(=O)Nc2cc(Cl)ccc2Cl)C(CCn2cccn2)C2=C(CCCC2=O)N1` (stereo not drawn) [Compound 40, 4-(2-(1H-Pyrazol-1-yl)ethyl)-N-(2,5-dichlorophenyl)-2-methyl-5-oxo-1,4,5,6,7,8-hexahydroquinoline-3-carboxamide], the EC50 is more than 10 µM and the Emax is 96%. Besides, under “hFFA3”, the “cAMP pEC50” value came to 4.95 ± 0.08.
For the compound `CC1=C(C(=O)Nc2cc(Cl)ccc2Cl)C(CC2CCN(C(=O)OC(C)(C)C)CC2)C2=C(CCCC2=O)N1` (stereo not drawn) [Compound 56, tert-Butyl 4-((3-((2,5-dichlorophenyl)carbamoyl)-2-methyl-5-oxo-1,4,5,6,7,8-hexahydroquinolin-4-yl)methyl)piperidine-1-carboxylate], the “allosteric effect on propionate response” value was “NAM”. For the same compound, the “cAMP pEC50” value (hFFA3) is recorded as “nr^d”.
